Source: patent publication US12390460B2, “Treatment for obesity” (1GLOBE BIOMEDICAL CO., LTD., priority 2018, dated 2025)

Legend:
[1] = Body weight, food/water intake and adverse effects in modified high-fat diet (HFD) obese mice; format: in vivo, C57B1/6J mice
Text: In order to assess the in vivo efficacy of Compound 14-3, a preferred embodiment of the compound of the invention, in treating and ameliorating obesity and related diseases like the metabolic syndrome, a previously used modified high-fat diet (HFD) was employed to induce obesity and severe fatty liver disease in mice (Derdak et al. J of Hepatology 2013; 58(4):785-91).
Five-week-old male, C57B1/6J mice (12-18 per group, Jackson Laboratory, Bar Harbor, ME) were fed ad libitum with a modified high-fat or control diet (Bioserv, Frenchtown, NJ) for 15 weeks. […] We had verified the efficacy of this diet to induce obesity in various pilot studies. At the end of the 15-week long feeding regimen, this diet caused substantial weight gain in these mice.
After 15 weeks on the modified HFD, the mice were put on a Compound 14-3 (or control vehicle) dosing regimen, in which the introductory 5 mg/kg (p.o., t.i.w. for the first 3 weeks) dose was followed by the administration of 10 mg/kg (p.o., t.i.w. for an additional 5 weeks) therapeutic dose. During the course of the drug treatment, the animals were monitored daily for changes in body weight, food/water intake, and any adverse effects.

[2] = system: intestinal fat absorption; assay: Fecal triglyceride content (biochemical kit) in HFD-fed mice; format: in vivo; conditions: 5th week of treatment, vs vehicle, FIG. 2A
Protocol: Referring to FIG. 2A, the fecal triglyceride content was assessed using a standard biochemical kit (Biovision, Mountain View, CA). Fecal samples were collected on the 5th week of the treatment over the course of three days. The fecal triglyceride content was normalized to fecal mass. […] Therefore, this mechanism cannot explain the observed significant weight loss in the drug-treated mice.

[3] = system: UCP1 and DIO2 in brown adipose tissue (BAT); assay: Quantitative real-time PCR of markers of thermogenic brown adipose tissue activation; format: in vivo; conditions: HFD-fed mice, vs vehicle; FIG. 2C
Text: Finally, the recruitment of brown adipose tissue (BAT) was examined. BAT is a well-know site for dissipating excess energy to prevent weight gain by inducing thermogenesis. Importantly, the expression levels of the two investigated markers of thermogenic BAT activation—UCP1 and DIO2—were not different in the two HFD-fed groups when measured by quantitative real-time PCR (FIG. 2C), indicating similar levels of BAT activation in response to HFD. These findings led us to conclude that for the weigh loss seen in the Compound 14-3-treated HFD-fed mice, other mechanisms are probably responsible.

[4] = system: white adipose tissue adipocytes; assay: H & E staining and morphometry of eWAT and iWAT adipocytes; format: in vivo; conditions: HFD-fed mice
[5] = system: TGF-β; assay: TGF-β gene expression in eWAT; format: in vivo; conditions: HFD-fed mice; FIG. 4C
Text: Since obesity has been linked to low-grade inflammation in the adipose tissue, we consequently observed increased TGF-β expression in the epididymal fat pads of the HFD-fed mice.

[6] = system: FGF21; assay: Serum FGF21 (ELISA) and FGF21 gene expression; format: in vivo; conditions: HFD-fed mice
Text: Many of the beneficial metabolic effect are linked to FGF21, and FGF21 itself may further enhance fatty acid oxidation (Xu J, et al. Diabetes (2009) 58(1):250-259; Li H, et al. Diabetes (2012) 61(4):797-806). We, therefore, also measured serum levels of FGF21 using a commercially available ELISA kit. […] Accordingly, in an aspect of the invention, Compound 14-3 treatment is utilized to increase fatty acid oxidation, resulting in decreased fat content in iWAT and eWAT, and decreased body weight in a subject.

[7] = system: leptin; assay: Serum leptin (ELISA); format: in vivo; conditions: HFD-fed mice, FIG. 7C
Text: Since crosstalk between leptin and FGF21 has been proposed in connection with the anti-obesity effects of FGF21 and a suppressive effect of exogenous FGF21 on circulating leptin levels has been previously observed in non-human primates, we also measured serum leptin levels using a commercially available ELISA kit. As expected, changes in fat content in the Compound 14-3-treated HFD group were followed by decrease in serum levels of fat-derived ‘satiety’ hormone leptin, indicating improved leptin resistance resulting from treatment using a compound of the invention (FIG. 7C). Thus, lower circulation levels of leptin were most likely due to drug-induced reductions in the masses of fat depos. This finding can explain decrease in POMC gene expression in the hypothalamus, as leptin is capable to directly modulate hypothalamic melanocortin system by changing the activity of POMC neurons.

[8] = system: liver; assay: Liver size, appearance and liver/body weight ratio (NAFLD) in HFD-fed mice; format: in vivo
Text: The enlarged liver appeared pale yellow consistent with fatty metamorphosis. […] The beneficial effect on liver size and appearance was consistent as a part of overall improvement in metabolic properties after Compound 14-3 treatment.

[9] = Oral glucose tolerance test (OGTT); format: in vivo; conditions: HFD-fed mice, 5th week of treatment, vs vehicle
Protocol: (§1) The described beneficial changes in body composition improved all aspects of the metabolic syndrome, including the underlying insulin resistance. Therefore, to fully characterize this animal model, we also assessed insulin signaling on live animals on the 5th week of Compound 14-3-treatment by conducting oral glucose tolerance test (OGTT, FIGS. 9A-C) and intraperitoneal insulin tolerance test (ITT, FIGS. 9D-E).
(§2) Both the OGTT and ITT tests were carried out on mice that have been starved for 6 hours before the procedure to eliminate the effect of the last meal on the blood glucose level. In both tests, we measured fasting glucose levels 30 min before the start of the assay to define baseline conditions. In the OGTT assay, the mice had been gavaged with 2 g/kg glucose, dissolved in water. After administration of the glucose, blood glucose level was measured via tail vein nicking using a commercially available glucometer. The obtained data was plotted against time (FIG. 9A) and the area under curve (AUC) calculations were carried out (FIG. 9B). Additionally, the blood glucose level measured at 120 min after gavage was used to describe the overall glucose tolerance of the mice (FIG. 9C).

[10] = Intraperitoneal insulin tolerance test (ITT); format: in vivo; conditions: HFD-fed mice, 5th week of treatment, vs vehicle
Protocol: as §1
as §2, with “The obtained data was plotted against time (FIG. 9A) and the area under curve (AUC) calculations were carried out (FIG. 9B).” left out
In the ITT test, we have intraperitoneally administered […] human recombinant insulin (Humulin N, Eli Lilly, Cambridge, MA) at the start of the assay and blood glucose was similarly measured for 120 min. […]

[11] = mice, 5 then 10 mg/kg p.o. t.i.w.

Compound: CCN(CC)CCNC(=O)c1c(C)[nH]c(/C=C2\C(=O)Nc3ccc(-c4csc(-c5ccccc5)n4)cc32)c1C [Compound 14-3]
- daily normalized caloric (food) intake ([1]; HFD-fed mice during treatment, FIG. 1C): not linked to decreased food intake
- daily normalized water intake ([1]; HFD-fed mice during treatment, FIG. 1D): not linked to decreased
- change in body weight during treatment ([1]; HFD-fed mice, 5 mg/kg p.o. t.i.w. 3 weeks then 10 mg/kg p.o. t.i.w. 5 weeks, FIG. 1A): not only prevented additional weight gain in the mice on HFD, but also triggered a gradual weight loss
- difference in body weight vs control-vehicle-treated mice on HFD at the time of euthanasia ([1]; HFD-fed mice, 5 then 10 mg/kg p.o. t.i.w., 8 weeks, FIG. 1B): ~20%
- behaviors or activities [1, 11]: No changes in behaviors or activities were observed
- side effects [1, 11]: temporary, self-resolving, mild diarrhea seen in a couple of mice at the initiation of drug treatment
- fecal triglyceride content normalized to fecal mass [2]: little difference
- DIO2 expression level in BAT [3]: not different
- UCP1 expression level in BAT [3]: not different
- size of eWAT adipocytes ([4]; H & E staining of eWAT, FIG. 4A-4B): decrease in the size of adipocytes
- size of iWAT adipocytes ([4]; H & E staining of iWAT, morphometry, FIG. 5A-5B): decrease in size of adipocytes
- TGF-β abundance (gene expression) in eWAT [5]: decreased
- serum FGF21 levels ([6]; ELISA, FIG. 7A): increased
- FGF21 gene expression ([6]; FIG. 7B): increased
- serum leptin levels [7]: decrease
- NAFLD ([8]; FIG. 8A): marked improvement
- size of the liver ([8]; FIG. 8A): markedly decreased
- liver/body weight ratio ([8]; FIG. 8B): lower
- glucose tolerance (OGTT) ([9]; 6 h starved, 2 g/kg glucose gavage, FIG. 9A): markedly improved
- area under curve during OGTT ([9]; FIG. 9B): smaller
- blood glucose level at 120 min during OGTT ([9]; FIG. 9C): decreased
- blood glucose levels in response to insulin (ITT) ([10]; i.p. insulin, 120 min, FIG. 9D): steeper drop
- area under curve during ITT ([10]; FIG. 9E): smaller
